The text below walks through data of PubChem BioAssay AID248 (DTP/NCI, 2004).

The subject of the assay is L1210 leukemia ip in BDF1 mice, survival T/C. Description: NCI In Vivo Anticancer Drug Screen. Data for tumor model L1210 Leukemia (intraperitoneal) in B6D2F1 (BDF1) mice. Conditions: endpoint: mean survival time, higher = longer survival. The method, boiled down: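 Transplantable tumor model; survival measured in treated vs vehicle control mice. Value = treated/control.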

The mark [1] stands for this setting: dose: 100.0 mg/kg/injection, schedule: Q01DX001 (ip), vehicle: saline.
Setting [2] is: dose: 200.0 mg/kg/injection, schedule: Q01DX001 (ip), vehicle: saline.
The mark [3] stands for this setting: dose: 400.0 mg/kg/injection, schedule: Q01DX001 (ip), vehicle: saline.
[4] abbreviates: dose: 100.0 mg/kg/injection, schedule: Q01DX009 (ip), vehicle: saline with Tween-80.
[5] abbreviates: dose: 200.0 mg/kg/injection, schedule: Q01DX009 (ip), vehicle: saline with Tween-80.
The mark [6] stands for this setting: dose: 100.0 mg/kg/injection, schedule: Q01DX001 (ip), vehicle: carboxymethylcellulose (CMC).
Setting [7] is: dose: 25.0 mg/kg/injection, schedule: Q01DX009 (ip), vehicle: saline.
[8] abbreviates: dose: 50.0 mg/kg/injection, schedule: Q01DX009 (ip), vehicle: saline.
Where [9] appears, read: dose: 100.0 mg/kg/injection, schedule: Q04DX003 (ip), vehicle: saline.
[10] abbreviates: dose: 200.0 mg/kg/injection, schedule: Q04DX003 (ip), vehicle: saline.
[11] abbreviates: dose: 400.0 mg/kg/injection, schedule: Q04DX003 (ip), vehicle: saline.

Where “and” joins values, the source holds several entries; their conditions need not be identical. Equal values may be shown once. Inconclusive results and toxic doses are left out.

With `CCOC1(O)C(=O)c2ccccc2OC1(OCC)c1ccccc1` (stereo not drawn), the T/C was 93 % of control (dose: 50.0 mg/kg/injection, schedule: Q01DX001 (ip), vehicle: saline); 96 % of control under setting [1]; 96 % of control under setting [2]; 98 % of control under setting [3].
For `COc1c(Cl)c(Cl)c(Cl)c(Cl)c1NC(C)=O`, the T/C was 102 % of control (dose: 100.0 mg/kg/injection, schedule: Q01DX001 (ip), vehicle: acetone); 100 % of control (dose: 200.0 mg/kg/injection, schedule: Q01DX001 (ip), vehicle: acetone); 94 % of control (dose: 400.0 mg/kg/injection, schedule: Q01DX001 (ip), vehicle: acetone).
In the case of `CC1(C)COP(Oc2ccccc2)OC1`, the T/C under setting [4] is 100 % of control; the T/C (dose: 100.0 mg/kg/injection, schedule: Q04DX003 (ip), vehicle: saline with Tween-80) is 107 % of control; the T/C under setting [5] was 97 % of control; the T/C (dose: 200.0 mg/kg/injection, schedule: Q04DX003 (ip), vehicle: saline with Tween-80) was 103 % of control; the T/C (dose: 400.0 mg/kg/injection, schedule: Q04DX003 (ip), vehicle: saline with Tween-80) is 107 % of control.
As for `NC(=O)C1(C(N)=O)CCC1`, the T/C (dose: 100.0 mg/kg/injection, schedule: Q01DX009 (ip), vehicle: Klucel (hydroxypropylcellulose) (HPC)) is 105 % of control; the T/C (dose: 200.0 mg/kg/injection, schedule: Q01DX009 (ip), vehicle: Klucel (hydroxypropylcellulose) (HPC)) is 105 % of control; the T/C (dose: 400.0 mg/kg/injection, schedule: Q01DX009 (ip), vehicle: Klucel (hydroxypropylcellulose) (HPC)) was 106 % of control.
For `COc1ccccc1NC(=O)N(CCCl)N=O`, the T/C (dose: 0.8 mg/kg/injection, schedule: Q01DX001 (ip), vehicle: carboxymethylcellulose (CMC)) is 110 % of control; the T/C (dose: 1.5 mg/kg/injection, schedule: Q01DX001 (ip), vehicle: carboxymethylcellulose (CMC)) is 106 % of control; the T/C (dose: 1.5 mg/kg/injection, schedule: Q01DX009 (ip), vehicle: carboxymethylcellulose (CMC)) was 97 % of control; the T/C (dose: 3.0 mg/kg/injection, schedule: Q01DX001 (ip), vehicle: carboxymethylcellulose (CMC)) was 108 % of control; the T/C (dose: 3.5 mg/kg/injection, schedule: Q01DX009 (ip), vehicle: carboxymethylcellulose (CMC)) is 118 % of control and 124 % of control; the T/C (dose: 5.3 mg/kg/injection, schedule: Q01DX009 (ip), vehicle: carboxymethylcellulose (CMC)) was 165 % of control. The T/C (dose: 6.0 mg/kg/injection, schedule: Q01DX001 (ip), vehicle: carboxymethylcellulose (CMC)) was 117 % of control; the T/C (dose: 8.0 mg/kg/injection, schedule: Q01DX009 (ip), vehicle: carboxymethylcellulose (CMC)) was 166 % of control and 236 % of control; the T/C (dose: 12.0 mg/kg/injection, schedule: Q01DX009 (ip), vehicle: carboxymethylcellulose (CMC)) was 214 % of control and 247 % of control; the T/C (dose: 18.0 mg/kg/injection, schedule: Q01DX009 (ip), vehicle: carboxymethylcellulose (CMC)) is 116 % of control and 123 % of control; the T/C under setting [6] was 100 % of control.
With `CCN(CC)CC(=O)NCC(C)(CCN1CCCCC1)c1cccc2ccccc12` (stereo not drawn), the T/C reads like this: under setting [7], 91 % of control; under setting [8], 93 % of control; under setting [9], 94 % of control.
For `CCCCCCCCNC(C(=O)c1ccc(Cl)cc1)c1ccc(Cl)cc1` (stereo not drawn), the T/C under setting [8] is 92 % of control; the T/C (dose: 100.0 mg/kg/injection, schedule: Q01DX009 (ip), vehicle: saline) was 91 % of control; the T/C under setting [9] is 98 % of control; the T/C (dose: 200.0 mg/kg/injection, schedule: Q01DX009 (ip), vehicle: saline) is 97 % of control; the T/C under setting [10] was 102 % of control; the T/C under setting [11] is 90 % of control.
Regarding `CO/C=C(\C)C(=O)NC(=O)NC1CCC(CO)C1` (stereo not drawn), the T/C reads like this: (dose: 100.0 mg/kg/injection, schedule: Q01DX001 (ip), vehicle: other) 96 % of control; (dose: 200.0 mg/kg/injection, schedule: Q01DX001 (ip), vehicle: other) 107 % of control; (dose: 400.0 mg/kg/injection, schedule: Q01DX001 (ip), vehicle: other) 98 % of control.
Turning to `N=C(N)SCc1ccc(Cl)c(Cl)c1`, the T/C was 106 % of control (dose: 50.0 mg/kg/injection, schedule: Q01DX003 (ip), vehicle: Klucel (hydroxypropylcellulose) (HPC)); 101 % of control (dose: 100.0 mg/kg/injection, schedule: Q01DX003 (ip), vehicle: Klucel (hydroxypropylcellulose) (HPC)); 102 % of control under setting [9]; 89 % of control under setting [10].
On to `CN1CCC2CCC(C1)N2C` (stereo not drawn), for which the T/C reads like this: (dose: 75.0 mg/kg/injection, schedule: Q01DX001 (ip), vehicle: saline) 93 % of control; (dose: 150.0 mg/kg/injection, schedule: Q01DX001 (ip), vehicle: saline) 100 % of control.
For `CCCCOP(=O)(Nc1ccc(Cl)cc1)OCCCC`, the T/C reads like this: (dose: 100.0 mg/kg/injection, schedule: Q04DX002 (ip), vehicle: saline with Tween-80) 101 % of control; (dose: 200.0 mg/kg/injection, schedule: Q04DX002 (ip), vehicle: saline with Tween-80) 94 % of control; (dose: 400.0 mg/kg/injection, schedule: Q04DX002 (ip), vehicle: saline with Tween-80) 105 % of control.
`O=C(C[n+]1ccccc1)N/N=C/c1ccc([N+](=O)[O-])s1`: the T/C runs as follows: (dose: 12.5 mg/kg/injection, schedule: Q01DX009 (ip), vehicle: water) 96 % of control; (dose: 25.0 mg/kg/injection, schedule: Q01DX009 (ip), vehicle: water) 101 % of control.
On to `CN1C=CC(C(C(N)=O)c2ccccc2)c2ccccc21` (stereo not drawn), for which the T/C is 95 % of control under setting [4]; 92 % of control under setting [5]; 92 % of control (dose: 400.0 mg/kg/injection, schedule: Q01DX009 (ip), vehicle: saline with Tween-80).
In the case of `O=C(COc1ccc([N+](=O)[O-])cc1)OCCN1CCOCC1`, the T/C under setting [6] was 92 % of control; the T/C (dose: 200.0 mg/kg/injection, schedule: Q01DX001 (ip), vehicle: carboxymethylcellulose (CMC)) is 111 % of control; the T/C (dose: 400.0 mg/kg/injection, schedule: Q01DX001 (ip), vehicle: carboxymethylcellulose (CMC)) is 101 % of control.
Take `COc1ccc(C(=S)N(C)NC(=O)CC(=O)NN(C)C(=S)c2ccc(OC)cc2)cc1`: the T/C (dose: 100.0 mg/kg/injection, schedule: Q01DX009 (ip), vehicle: gum acacia) was 95 % of control; the T/C (dose: 100.0 mg/kg/injection, schedule: Q04DX003 (ip), vehicle: gum acacia) is 92 % of control; the T/C (dose: 200.0 mg/kg/injection, schedule: Q01DX009 (ip), vehicle: gum acacia) is 90 % of control; the T/C (dose: 200.0 mg/kg/injection, schedule: Q04DX003 (ip), vehicle: gum acacia) is 95 % of control; the T/C (dose: 400.0 mg/kg/injection, schedule: Q04DX003 (ip), vehicle: gum acacia) was 96 % of control.
Turning to `O=C(CC(=O)C(F)(F)C(F)(F)C(F)(F)F)C(F)(F)F`, the T/C reads like this: (dose: 12.5 mg/kg/injection, schedule: Q01DX009 (ip), vehicle: saline) 107 % of control; (dose: 12.5 mg/kg/injection, schedule: Q04DX003 (ip), vehicle: saline) 102 % of control; under setting [7], 88 % of control; (dose: 25.0 mg/kg/injection, schedule: Q04DX003 (ip), vehicle: saline) 87 % of control; (dose: 50.0 mg/kg/injection, schedule: Q04DX003 (ip), vehicle: saline) 93 % of control.
For the molecule `CC1(C)N=C(N)N=C(N)N1c1cccc(CCCCc2cccc(NC(=O)CBr)c2)c1`, the T/C was 102 % of control (dose: 5.0 mg/kg/injection, schedule: Q01DX001 (ip), vehicle: saline); 98 % of control (dose: 10.0 mg/kg/injection, schedule: Q01DX001 (ip), vehicle: saline); 98 % of control (dose: 20.0 mg/kg/injection, schedule: Q01DX001 (ip), vehicle: saline); 112 % of control (dose: 40.0 mg/kg/injection, schedule: Q01DX001 (ip), vehicle: saline).
As for `NCCc1ccc(N)cc1`, the T/C by setting is: under setting [1], 106 % of control and 92 % of control; under setting [9], 95 % of control; under setting [2], 106 % of control and 89 % of control; under setting [10], 98 % of control; under setting [3], 97 % of control and 92 % of control; under setting [11], 101 % of control.
With `CCC/C=C(/CC(=O)O)C(=O)O`, the T/C runs as follows: under setting [9], 95 % of control; under setting [10], 100 % of control; under setting [11], 97 % of control.
